Test results reported in the supplement of paper PMC10307832.

Tests used:
Test in all cases: relative viability (nuclei count vs DMSO), 5 days (fraction); higher = more cells survive
GW-2580 + Pictilisib = compound: COC1=CC=C(C=C1)COC2=C(C=C(C=C2)CC3=CN=C(N=C3N)N)OC [GW-2580] + CS(=O)(=O)N1CCN(Cc2cc3nc(-c4cccc5[nH]ncc45)nc(N4CCOCC4)c3s2)CC1 [Pictilisib] (partner 1 µM)
How it was run: (§1)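 Lung cancer cell lines were pin-tool dosed in 1536-well plates on the day after seeding, with either a lone drug or a fixed anchor-drug dose plus five library-drug doses (not always all listed) in √10 steps. Nuclei were counted on 4× images after 5 days. Relative viability is the ratio of treated-well to vehicle-well nuclei counts, with each value a median of duplicate plates.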

Fedratinib + Pictilisib = compound: Cc1cnc(Nc2ccc(OCCN3CCCC3)cc2)nc1Nc1cccc(S(=O)(=O)NC(C)(C)C)c1 [Fedratinib] + CS(=O)(=O)N1CCN(Cc2cc3nc(-c4cccc5[nH]ncc45)nc(N4CCOCC4)c3s2)CC1 [Pictilisib] (partner 1 µM)
How it was run: as §1

Fedratinib + Foretinib = compound: Cc1cnc(Nc2ccc(OCCN3CCCC3)cc2)nc1Nc1cccc(S(=O)(=O)NC(C)(C)C)c1 [Fedratinib] + COc1cc2c(Oc3ccc(NC(=O)C4(C(=O)Nc5ccc(F)cc5)CC4)cc3F)ccnc2cc1OCCCN1CCOCC1 [Foretinib] (partner 0.25 µM)
How it was run: as §1

GW-2580 + Trametinib = compound: COC1=CC=C(C=C1)COC2=C(C=C(C=C2)CC3=CN=C(N=C3N)N)OC [GW-2580] + CC(=O)Nc1cccc(-n2c(=O)n(C3CC3)c(=O)c3c(Nc4ccc(I)cc4F)n(C)c(=O)c(C)c32)c1 [Trametinib] (partner 0.02 µM)
How it was run: as §1

Fedratinib + Lapatinib = compound: Cc1cnc(Nc2ccc(OCCN3CCCC3)cc2)nc1Nc1cccc(S(=O)(=O)NC(C)(C)C)c1 [Fedratinib] + CS(=O)(=O)CCNCc1ccc(-c2ccc3ncnc(Nc4ccc(OCc5cccc(F)c5)c(Cl)c4)c3c2)o1 [Lapatinib] (partner 2 µM)
How it was run: as §1

Fedratinib + Olaparib = compound: Cc1cnc(Nc2ccc(OCCN3CCCC3)cc2)nc1Nc1cccc(S(=O)(=O)NC(C)(C)C)c1 [Fedratinib] + O=C(c1cc(Cc2n[nH]c(=O)c3ccccc23)ccc1F)N1CCN(C(=O)C2CC2)CC1 [Olaparib] (partner 8 µM)
How it was run: as §1

## UMC-11
GW-2580 + Pictilisib; first compound 0.08 µM
  relative viability: 0.828
GW-2580 + Pictilisib; first compound 0.8 µM
  relative viability: 1.01
GW-2580 + Pictilisib; first compound 2.53 µM
  relative viability: 0.695
GW-2580 + Pictilisib; first compound 8 µM
  relative viability: 0.823
Fedratinib + Pictilisib; first compound 0.1 µM
  relative viability: 0.672
Fedratinib + Pictilisib; first compound 0.3162 µM
  relative viability: 0.82
Fedratinib + Pictilisib; first compound 1 µM
  relative viability: 0.397
Fedratinib + Foretinib; first compound 0.1 µM
  relative viability: 1.1
Fedratinib + Foretinib; first compound 0.3162 µM
  relative viability: 0.958
Fedratinib + Foretinib; first compound 1 µM
  relative viability: 0.706
GW-2580 + Trametinib; first compound 0.08 µM
  relative viability: 0.826
GW-2580 + Trametinib; first compound 0.8 µM
  relative viability: 0.866
GW-2580 + Trametinib; first compound 2.53 µM
  relative viability: 0.574
GW-2580 + Trametinib; first compound 8 µM
  relative viability: 0.817
Fedratinib + Lapatinib; first compound 0.1 µM
  relative viability: 0.825
Fedratinib + Lapatinib; first compound 0.3162 µM
  relative viability: 1.08
Fedratinib + Lapatinib; first compound 1 µM
  relative viability: 0.284
Fedratinib + Olaparib; first compound 0.1 µM
  relative viability: 0.3
Fedratinib + Olaparib; first compound 0.3162 µM
  relative viability: 0.33
Fedratinib + Olaparib; first compound 1 µM
  relative viability: 0.23
